Target: Carbonic anhydrase 9 (Homo sapiens, UniProt Q16790)
Test: Inhibition of recombinant human carbonic anhydrase 9 by stopped-flow CO2 hydration assay

Row | Ki [nM] | Compound
1 | 851 | Cc1c(C(=O)O)cnc2c(NC(=O)Nc3ccc(S(N)(=O)=O)cc3)cnn12
2 | 212 | Cc1c(C(=O)O)cnc2c(NC(=O)NCCc3ccc(S(N)(=O)=O)cc3)cnn12
3 | 975 | CCOC(=O)c1cnc2c(NC(=O)NCCc3ccc(S(N)(=O)=O)cc3)cnn2c1C
4 | 142 | Cc1c(C(=O)O)cnc2c(NC(=O)c3ccc(S(N)(=O)=O)cc3)cnn12
5 | 703 | Cc1c(C(=O)O)cnc2c(NC(=O)NCc3ccc(S(N)(=O)=O)cc3)cnn12
6 | 680 | CCOC(=O)c1cnc2c(NC(=S)Nc3ccc(S(N)(=O)=O)cc3)cnn2c1C
7 | 523 | Cc1c(C(=O)O)cnc2c(NC(=O)Nc3cccc(S(N)(=O)=O)c3)cnn12
8 | 919 | CCOC(=O)c1cnc2c(NC(=S)NCCc3ccc(S(N)(=O)=O)cc3)cnn2c1C
9 | 9.7 | CCOC(=O)c1cnc2c(NC(=O)NCc3ccc(S(N)(=O)=O)cc3)cnn2c1C
10 | 843 | CCOC(=O)c1cnc2c(NC(=O)N/C=C/c3ccc(S(N)(=O)=O)cc3)cnn2c1C
11 | 23 | CCOC(=O)c1cnc2c(NC(=S)NCc3ccc(S(N)(=O)=O)cc3)cnn2c1C
12 | 142 | CCOC(=O)c1cnc2c(NC(=O)c3ccc(S(N)(=O)=O)cc3)cnn2c1C
13 | 6.5 | CCOC(=O)c1cnc2c(NC(=O)c3ccc(Cl)c(S(N)(=O)=O)c3)cnn2c1C
14 | 312 | CCOC(=O)c1cnc2c(NC(=S)Nc3cccc(S(N)(=O)=O)c3)cnn2c1C

From ChEMBL document CHEMBL4808229, “Privileged scaffolds in medicinal chemistry: Studies on pyrazolo[1,5-a]pyrimidines on sulfonamide containing Carbonic Anhydrase inhibitors” (Bioorg Med Chem Lett, 2021)
